Assay results: US4487768A, “Cephem compounds” (Fujisawa Pharmaceutical Co., Ltd., priority 1982, dated 1984)
≈ marks a conversion by molar mass, not a printed value.

Key:
[1] = Urinary excretion in rats after oral administration; assay type: in vivo; conditions: rat, oral 100 mg/kg, urine 0 to 6 and 6 to 24 hours, bioassay, read-out: Urinary recovery in 24 hours (%)
Description: Urine of rats was collected with a urine collector at 0 to 6, and 6 to 24 hours after oral administration of 100 mg/kg of the test antibiotic. The antibiotic levels in the urine samples were bioassayed with the standard solution prepared with M/15 phosphate buffer (pH 7.0) and the urinary recovery in 24 hours was calculated.

Proteus mirabilis 18 = assay: Minimal inhibitory concentration, two-fold agar-plate dilution method; assay type: cell-based; conditions: HI-agar, 37° C., 20 hours, 10^8 viable cells per ml
Description: (§1) (A) Minimal inhibitory concentration 1 Test Method In vitro antibacterial activity was determined by the two-fold agar-plate dilution method as described below. One loopful of an overnight culture of each test strain in Trypticase-soy broth (10^8 viable cells per ml) was streaked on heart infusion agar (HI-agar) containing graded concentrations of representative test compound, and the minimal inhibitory concentration (MIC) was expressed in tems of μg/ml after incubation at 37° C. for 20 hours.

Proteus vulgaris 2 = assay: as above; assay type: cell-based; conditions: HI-agar, 37° C., 20 hours, 10^8 viable cells per ml
Description: as §1

in vivo = conditions: rat, po, 100 mg/kg
Description: Rats anesthetized with pentobarbital were fixed in supine position, and a polyethylene cannula was inserted into the bile duct. Bile samples were collected at 0 to 3, 3 to 6, and 6 to 24 hours after oral administration of 100 mg/kg of the test antibiotic. The antibiotic levels in the bile samples were bioassayed with the standard solutions prepared with M/15 phosphate buffer (pH 7.0) and the biliary recovery in 24 hours were calculated.

dose excreted at 24 h [1]: 26.6%
MIC (Proteus mirabilis 18): 0.05 µg/mL (≈ 0.103 µM)
MIC (Proteus vulgaris 2): 0.1 µg/mL (≈ 0.207 µM)
dose excreted at 24 h (in vivo): 4.72%
Compound: [N-]=[N+]=NCC1=C(C(=O)O)N2C(=O)C(NC(=O)/C(=N\OCC(=O)O)c3nsc(N)n3)C2SC1 (stereo not drawn) [Test Compound (1), 7-[2-Carboxymethoxyimino-2-(5-amino-1,2,4-thiadiazol-3-yl)acetamido]-3-azidomethyl-3-cephem-4-carboxylic acid (syn isomer)]
